Assay results from US20210156865A1, “METHODS FOR ASSESSING EFFICACY OF MALT1 INHIBITORS USING AN NF-KB TRANSLOCATION ASSAY” (Janssen Pharmaceutica NV, priority 2019, published 2021).

Legend:
[1] = system: NF-κB proteins (p50 and RelB) in CLL cells; details: CLL cells treated in vitro; cited from earlier work
[2] = system: NF-κB target genes (CCND2, BCL2A, CCL3, CCL4, RGS1, and TNF) in CLL cells; details: CLL cells treated in vitro; cited from earlier work
[3] = system: NF-κB (p105/p50) nuclear translocation in CD19-positive B (CLL) cells; assay: NF-κB nuclear translocation in B cells from CLL PBMCs, 30 min anti-IgM; format: cell-based, human; details: 6 hours compound, anti-IgM 30 minutes
Method: Alternatively, B cells can also be activated by beads coated with anti-IgM antibody. After the stimulation, PBMCs were fixed using CytoFix buffer and permeabilized using 0.1% Triton X-100 solution. Cells were then stained with anti-CD19 to label B (CLL) cells, Hoechst 33342 to label nuclei, and anti-p105/p50 to label NF-κB subunit. Samples were analyzed on ImageStreamX to evaluate NF-κB nuclear localization in the CD19-positive cells. […] Statistical significance was determined using Student's t-test in Microsoft Excel.

[4] = system: whole blood of NHL patients; assay: Gene expression signatures in NHL whole blood treated with lymphocyte-stimulating agents; format: cell-based, human; details: PMA-stimulated samples, 100 μM
Method: To obtain a robust gene signature of MALT1 inhibitor activity, whole blood of nine NHL patients which was stimulated with CD3/CD28, PMA/ionomycin, or PBS as a control was tested. Briefly, NHL donor blood was collected in 10 mL sodium heparin tubes and transported in refrigerated state (cold packs). […] Then, aliquots were stimulated with CD3 and CD28 antibodies (1 ug/ml each), PMA (20 ng/ml) and Ionomycin (1 μg/mL), or unstimulated (PBS) for four hours. Following stimulation, the treated blood was transferred into a PAXgene tube (Qiagen; Hilden, Germany) and RNA was extracted using the PAXgene RNA kit.
Gene expression was measured using 100 ng of RNA extracted from the whole blood in the Pan-Cancer Immune Profiling kit (NanoString; Seattle, Wash.) according to the manufacturer's instructions. Gene expression was normalized across samples using NanoString nSolver software. […] Briefly, log 2-scaled, normalized NanoString counts were fit to a linear model (which incorporated the patient of origin) and moderated t-statistics, along with the associated Benjamini-Hochberg (BH) corrected p-values, were computed by empirical Bayes moderation of the standard errors towards a common value.

[5] = system: NF-kB nuclear localization in B (CLL) cells; assay: NF-κB nuclear translocation in CLL B cells, overnight incubation, 6 h anti-IgM; format: cell-based, human; details: CLL PBMC; overnight compound; anti-IgM 6 hours
Method: Cells were then treated with anti-IgM or left untreated for 6 hours. After stimulation, PBMC were fixed using CytoFix buffer and permeabilized using 0.1% Triton X-100 solution. Cells were then stained with anti-CD19 to label B (CLL) cells, anti-CD4 and anti-CD8 to label T cells, Hoechst 33342 to label nuclei, and anti-p105/p50 to label NF-kB subunit. Samples were analyzed on ImageStreamX to evaluate NF-kB nuclear localization in B cells or T cells. […] Statistical significance was determined using Student's t-test in Microsoft Excel.

[6] = system: peripheral blood of NHL patients; assay: Gene expression in whole blood of NHL patients (NanoString Pan-Cancer Immune Profiling); format: cell-based, human; details: 200 μM 24 hours, anti-CD3 and anti-CD28 four hours
Method: (§1) Peripheral blood was collected from three NHL and two CLL patients. […] Prior to stimulation and following stimulation, the treated blood was transferred into a PAXgene tube (Qiagen; Hilden, Germany) and RNA was extracted using the PAXgene RNA kit. Gene expression was measured using 100 ng of RNA extracted from the whole blood in the Pan-Cancer Immune Profiling kit (NanoString; Seattle, Wash.) according to the manufacturer's instructions.

[7] = system: purified T-cells and PBMCs from NHL patients; assay: IL2 expression in purified T-cells and PBMCs from NHL patients; format: cell-based, human; details: T-cells and PBMC of NHL blood; 24 hours; CD3 and CD28 six hours
Method: The effect of a MALT inhibitor was analyzed utilizing gene expression signatures from purified T-cells and PBMCs from Non-Hodgkin's lymphoma patients. Peripheral blood was collected from five NHL patients, and the peripheral blood was allowed to stand overnight. Then, the peripheral blood was treated for 24 hours with a MALT inhibitor or DMSO control. The blood was then stimulated with monoclonal antibodies against CD3 and CD28 for six hours. Prior to stimulation and following stimulation, PBMC were purified from the treated blood using a ficoll density gradient and T-cells were purified using CD3 Beads (Miltenyi) using the manufacturers protocol. Purified cells were lysed in RLTplus (Qiagen) and RNA was extracted from the purified cells using an AllPrepkit (Qiagen). Gene expression was measured using 100 ng of RNA in the Pan-Cancer Immune Profiling kit (NanoString) according to the manufacturer's instructions.

[8] = system: proteases, caspases, protein kinases, and G-protein-coupled receptors; assay: Binding inhibition panel at single dose; design: dose or concentration left out as unconfirmed
[9] = system: peripheral blood of CLL patients; assay: Gene expression in whole blood of CLL patients (NanoString Pan-Cancer Immune Profiling); format: cell-based, human; details: 200 μM 24 hours, anti-CD3 and anti-CD28 four hours
Method: as §1

[10] = system: NF-κB (p105/p50) nuclear translocation in CD4 and CD8 positive T cells; assay: NF-kB nuclear translocation in T cells from NHL peripheral whole blood; format: cell-based, human
Method: (§2) The solution was mixed by pipetting with a 1 mL pipette. The plates were incubated in a humidified incubator at 37° C. with 5% CO2 for an additional 6 hours.
The staining solution was prepared by diluting Hoechst 33342 (Thermo Scientific, cat. #62249) to 10 nM and the p50 antibody (Clone 2J10D7; Novus, cat. #NB100-56583C) at 50 μg/mL in FACS buffer. The cells were incubated in the staining solution for 30 minutes at room temperature in the dark. The cells were washed by centrifugation at 1350 rpm for 5 minutes at room temperature, the supernatants were discarded, and the pellets were reconstituted in FACS buffer. The wash step was repeated twice, and the cells were resuspended in PBS at a final concentration of 5-20×10^6 cell/mL in 25 μL of PBS.
The samples were imaged on an AMNIS® […]® X Mark II imaging flow cytometer (MilliporeSigma, Burlington, Mass.) immediately, using 60× magnification, and the data was analyzed in IDEAS software using an internalization module, e.g., to evaluate frequency of CD4+ and CD8+ T cells or CLL cells with nuclear enrichment of p50.
The next day, the mixture samples were treated with anti-CD3 and anti-CD28 stimulatory antibodies following a procedure as that described in Example 1. […] Samples were analyzed on ImageStreamX to evaluate NF-κB nuclear localization in the CD4 and the CD8 positive T cells.

CD4+ and CD8+ T cells = assay: CD69 expression on T cells from peripheral whole blood, imaging flow cytometry; format: cell-based, human; details: 200 μM overnight, anti-CD3 and anti-CD28 6 hours
Method: as §2
The next day, blood was treated with anti-CD3 and anti-CD28 stimulatory antibodies for 6 hours as described in Example 1 or left untreated. After treatment with the stimulatory antibodies, the red blood cells were lysed using multi-species lysis buffer, and the white blood cells were stained with anti-CD4 and anti-CD8 antibodies to label T cells and an anti-CD69 antibody to measure early T cell activation. Frequency of CD69-positive T cells (CD4+ and CD8+) was measured by IFC.

[11] = system: purified T-cells and PBMCs from NHL patients; assay: Gene expression in T-cells and PBMCs purified from NHL blood without stimulation; format: cell-based, human; details: no stimulation, 24 hours
Method: Peripheral blood was collected from five NHL patients, and the peripheral blood was allowed to stand overnight. Then, the peripheral blood was treated for 24 hours with a MALT inhibitor or DMSO control. PBMCs were purified from the unstimulated blood using a ficoll density gradient and T-cells were purified using CD3 Beads (Miltenyi) using the manufacturers protocol. Purified cells were lysed in RLTplus (Qiagen) and RNA was extracted from the purified cells using an AllPrep kit (Qiagen). Gene expression was measured using 100 ng of RNA in the Pan-Cancer Immune Profiling kit (NanoString) according to the manufacturer's instructions. Gene expression signatures were compared between the MALT inhibitor treated and DMSO treated samples.

Oral bioavailability = details: in vivo
[12] = system: CD79b-mutant DLBCL and ibrutinib-resistant DLBCL cell lines; assay: Growth of DLBCL cell lines in vitro; format: cell-based; details: ibrutinib-resistant with BTK C481S or CARD11 mutations
[13] = system: CD79b and CARD11-mutant ABC-DLBCL xenograft models; assay: ABC-DLBCL xenograft models in vivo

In the case of `COCCOc1nc(-c2ccc(Cl)c(Cl)c2)n(-c2ccc(NC(=O)CCl)cc2)n1` [MI-2], the “nuclear translocation of NF-κB proteins” value [1] is listed as “suppress” and the “expression of six known NF-κB target genes” value [2] is listed as “significantly reduce”.
In the case of `O=C(Nc1ccnc(C(F)(F)F)c1)c1cnn(-c2cccc3c(=O)[nH]ccc23)c1C(F)(F)F` [Compound A, 1-(1-oxo-1,2 dihydroisoquinolin-5-yl)-5 (trifluoromethyl)-N-[2 (trifluoromethyl)pyridin-4 yl]-1H-pyrazole-4 carboxamide], the “NF-κB nuclear translocation in activated B cells” value [3] is reported as “inhibited”, the genes significantly upregulated [4] is reported as “no genes were significantly upregulated” and the “gene expression at the specified cutoff levels” value ([4]; genes ICOS, POU2F2, CCR4, CTLA4) is reported as “downregulated”. The “NF-κB nuclear translocation in B cells” value [5] was “inhibited”, the “stimulation induced upregulation of CXCL10” value [6] was “repressed” and the “stimulation induced upregulation of IL2” value [7] was “repressed”. For the same compound, the “binding inhibition of proteases, caspases, protein kinases, and G-protein-coupled receptors” value [8] was “did not show significant binding inhibition”, the “stimulation induced upregulation of CXCL10” value [9] was “repressed” and the “NFκB nuclear translocation in T cells” value ([10]; CD3/CD28 stimulation, dosage dependent) was “completely blocked”. For the same compound, the IC50 ([10]; Homo sapiens, CD8 positive, overnight, CD3/CD28 stimulation 6 h, read-out: IC50, NFκB nuclear translocation in T cells) was ~9.5 µM, the “surface expression of CD69 on T cells” value (CD4+ and CD8+ T cells; NHL blood) was “significantly inhibited” and the “surface expression of CD69 on CD4+ and CD8+ T cells” value (CD4+ and CD8+ T cells; normal blood) was “not affected”. For the same compound, the APOE expression ([11]; purified PBMCs) was “repressed”, the PYCARD expression ([11]; purified PBMCs) was “repressed” and the NF-κB2 expression ([11]; purified T-cells) was “repressed”. The TNFSF10 expression ([11]; purified T-cells) was “repressed”, the oral bioavailability (Oral bioavailability) was “orally bioavailable” and the “growth of DLBCL cell lines” value [12] was “inhibit growth”. For the same compound, the “efficacy in xenograft models” value [13] was “shown efficacy”.
